According to patent US20140148355A1, “COMPOSITIONS AND METHODS FOR ANALYSIS OF H3K4 METHYLATED CHROMATIN” (UNIVERSITY OF OSLO, priority 2011, published 2014):

System: H3K4 methylated chromatin
Assay: Chromatin pulldown (ChPD) with western blot detection
Type: binding
Details: antibodies against each of the three H3K4 methylation states; Arabidopsis seedling chromatin
Excerpt: FIG. 8 Chromatin pulldown (ChPD) using the ASHH2 CW. […] Modified histones were visualised by western blot using antibodies as indicated. Molecular size markers are shown to the right. (B) qPCR with primers for assumed ASHH2 target genes on DNA isolated from seedling chromatin pulled down with GST-CWASHH2. ChPD with GST alone was used as a negative control. Data are shown as percent of input. The Ta3 retrotransposon was used as reference. Standard deviations are shown. (C) ChIP using antibodies against H3K4me1, H3K4me3 and H3K36me3 and primers for the same genes as in (B). Data are shown relative to Ta3. (D) ChPD from wt and ashh2 mutant seedlings as in (A) using antibodies as indicated. ChPD with GST alone was used as a negative control and histone H3 as reference.
Chromatin pull-down (ChPD) was performed using crude chromatin in ChIP dilution buffer (1.1% Triton X-100, 1.2 mM EDTA, 16.7 mM Tris-HCL pH 8, 167 mM NaCl) prepared as for ChIP (Gendrel et al., 2005) incubated with 8 μg GST-CW fusion protein and control proteins (only GST alone, or together with GST-CW-W874A and GST-WIYLD) over night. For western blotting, the pulled down chromatin was washed three times in ChIP dilution buffer, run on a 15% SDS-PAGE and blotted onto a PVDF membrane. […]

WIYLD domain of SUVR4: WIYLD domain of the Arabidopsis SET-domain protein SUVR4, GST fusion, negative control [reference compound]
pull down of H3K4 methylated chromatin (western blot signal): did not pull down
